Patent US7771426B2, “Bone treatment instrument and method” (University Health Network, priority 2004, dated 2010)
Entries after “also recorded” stand apart in the source; their conditions may differ.

Columns and labels:
MT-1 cells = test: PDT effect on in vitro MT-1 cells (SRB assay); assay type: cell-based, human
Method: Method: MT-1 cells were grown and maintained in RPMI media containing penicillin and streptomycin with 10% fetal bovine serum at 37 degrees Celsius. Once the cells had reached subconfluence they were resuspended in free RPMI. The cells were harvested using 0.05% trypsin—0.05 mM EDTA solution. Cells were then counted with a hemocytometer and plated at 2×10^5 cells/ml in a 96 well plate. BPD-MA was then added to the individual wells at a concentration of 1 ug/ml or 10 ug/ml. […] Following treatment the cells were allowed to survive for 24 hours following which an SRB assay was performed to establish the number of viable cells remaining. Briefly, cells were fixed in 10% trichloroacetic acid and stained with a […] solution selectively staining viable cells. A spectrophotometer was then used to assess the absorbance of 540 nm light within individual wells of the 96 well plate which was correlated to the number of remaining cells following treatment.

[1] = BPD uptake in the serum and spinal cord (fluorimetry, fluorescent microscopy); assay type: in vivo, rats (Sprague-Dawley)
Method: Method: BPD-MA was administered to 10 rats (Sprague-Dawley, 150 gm) through a tail vein injection. Animals were then sacrificed using CO2 inhalation overdose at 16 minutes, 3 hrs, 6 hrs and 24 hrs following injection. Control animals without BPD-MA were euthanized in a similar fashion. Serum samples and spinal cord tissue samples were harvested from the animals at the time of euthanasia. A segment of spine was also fixed in 10% formalin for 7 days followed by decalcification for 7 days in 10% formic acid for fluoroscopic microscopic analysis. A control assay determined that BPD-MA fluorescence was not affected by formic acid. BPD-MA concentration within the serum and spinal cord tissue was then determined using fluorimetry. Briefly, the samples were solubilized and the samples were tested with excitation and emission spectra specific to BPD-MA. The fluorescence of the drug within the tissue was correlated to the specific uptake of the drug within the tissue. Fluorescent microscopy was also used to visualize the presence or absence of BPD-MA within the vertebrae and spinal cord at 1 hour, 3 hours and 24 hours.

[2] = system: MT-1 cells, a human breast cancer cell line; test: Effect of PDT in vertebrae and long bones with metastases (area of effect, histology); assay type: in vivo, mu/mu nude rats
Excerpt: (§1) Method: Thirty mu/mu nude rats were used in this part of the study. The rats received a left ventricular intracardiac injection with MT-1 cells as described earlier. At day 21 post injection each animal was anesthetized with 2% halothane/air mixture and placed on a custom made radiolucent stereotactic jig in the left lateral decubitus position. Prior to this it was established by histological methods that animals with tumors contained tumor in most vertebral bodies and long bones. Because lesions within the vertebral bodies could not be detected by fine detail radiography, T12 and L4 vertebrae were selected as representative levels for treatment. An 18 g needle was placed on the cortex of the targeted vertebrae or long bone with the use of a mini C-arm image intensifier. A 300 mW diode laser coupled to a 200 um fiber was used to deliver 690 nm light. BPD-MA was administered intravenously at a dose of 2 mg/kg prior to the administration of the light dose. […] Light doses ranged from 25 J to 150 J. Light was delivered at 150 mW for all treatments and the effects of different drug light intervals and different light doses using a fixed drug concentration were evaluated. The animals were examined for paralysis post treatment. The animals were sacrificed using CO2 inhalation. Vertebrae were then harvested and fixed in 10% formalin for 7 days. Micro-CT images were obtained and then the samples were decalcified in 10% formic acid for 7 days. The tissue was then blocked and paraffin embedded and 10 um sections were cut. The sections were analyzed under light microscopy using H&E staining as well as TUNEL and human EGF-r immunohistochemistry. The area of effect as denoted by necrosis and apoptosis was identified and measured using a Nikon slide scanner and Image Pro software.

[3] = system: MT-1luc+ metastatic lesions; test: Targeted bioluminescent lesions, pre and post-PDT bioluminescent imaging; assay type: in vivo, nude mu/mu rats
Method: Method: Twenty nude mu/mu (Harlan) female rats (4-6 weeks of age) were used in this part of the study. The protocol was in accordance with the Canadian Council on Animal Care prior to initiation. Prior to injection each animal was anesthetized with 2% halothane/air mixture in a sterile environment. Twenty animals were used for injection. The chest was prepared with alcohol and 2×10^6 MT-1luc+ cells, a human breast cancer cell line carrying the luciferase reporter gene, were injected into the left ventricle using a 1 ml syringe with a 26 g needle. Pulsatile blood in the syringe was ensured prior to each injection. The animals were placed back into their cages and fed water and rat chow ad libitum. At day 18 the animals were imaged using the Xenogen IVIS system. To do this 100 mg/kg luciferin was injected into the peritoneal cavity of each animal and each animal was imaged 5 minutes following injection for a 1 to 5 minute image acquisition period. The animals were then imaged on the same custom made stereotactic radiolucent jig using a mini-C-arm image intensifier which allowed correlation of the bioluminescent signal to the vertebrae. FIGS. 1A-C show stereotactic targeting of bioluminescent metastatic lesions using a mini-C-arm image intensifier. FIG. 1A is a bioluminescent overlay image of a nude rat with metastatic lesions on a radio lucent stereotactic jig. FIG. 1B is a fluoroscan image of markers placed along the grid of the stereotactic jig in correlation to the bioluminescent metastases and resulting in localization of the lesion.
The lesions were then targeted and treated with 25 J or 150 J at a 3 hour drug light interval. The animals were then re-imaged with the Xenogen IVIS system 48 hours post treatment in the stereotactic frame. Signal intensity (photons/second/cm^2) at the targeted site before treatment was compared to signal intensity following treatment and compared to lesions not treated using Igor Pro software (Alameda, Calif.). The animals were then sacrificed using CO2 inhalation and the spines and long bones were harvested. Samples were placed in 10% formalin for 7 days and micro-CT images of the vertebrae and long bones were obtained. The vertebrae were examined histologically using H&E staining and immunohistologically with human EGF-r and TUNEL stains as described earlier. ANOVA Bonferroni and two-tailed paired T-test statistical techniques were applied.

[4] = Effect of light dose on the rat spinal cord, spinal nerves and peripheral nerves (hind leg paralysis); assay type: in vivo, mu/mu nude rats
Excerpt: as §1

[5] = Treatment groups: deaths of rats; assay type: in vivo, mu/mu nude rats
[6] = pig, in vivo
Method: In this study, 50 kg pigs were used. The pigs were pre-anesthetized with ketamine/xylazine 20/2 mg/Kg IM for induction. An IV line was established and 0.9% saline solution was run at 5 ml/Kg/hr. Verteporfin was administered through the IV line using an infusion pump. The pigs were intubated and maintained on a ventilator with isofluorane/nitrous oxide inhalant by animal care professionals. The pigs were placed prone on a radiolucent surgical table with appropriate bolsters for support and padding. A sterile prep was made with betadine soap and scrub and prep solution. A small stab incision was made over the lumbothoracic spine of the pig.
Placement into the vertebral body through a transpedicular and parapedicular approach was facilitated by the use of a CT-Carm. The L1 and L2 vertebrae were targeted.
A cannulated exchange sheath was placed over the guide rod and inserted through the incision. The guide rod was then removed, and a fiber optic cable sheath was then inserted down the cannula of the exchange sheath. […] The cannulated bone screw assembly was pushed down the cannulated exchange sheath. […]
Detector and diffusing fibers were placed in the same transverse plane. The diffusing fiber was moved incrementally with respect to the detector fiber and differences in power were measured at five different distances from the detector source using a computer aided photomultiplier tube. […]

[7] = system: orthotopic chondrosarcoma and fibrosarcoma tumor models; settings: 4 weeks post treatment; 15 minute and 3 hour drug light interval; cited from earlier work
[8] = 25 J, drug-light interval 3 hrs
[9] = 50 J, drug-light interval 3 hrs
[10] = 75 J, drug-light interval 0.75 hrs
[11] = 75 J, drug-light interval 3 hrs
[12] = 100 J, drug-light interval 3 hrs
[13] = 150 J, drug-light interval 3 hrs

benzoporphyrin derivative monoacid ring A [BPD-MA]
Mean (absorbance), SRB assay (MT-1 cells; Group 1: drug 1 ug/ml, light 200 J/cm^2, 690 nm, 8 hour incubation): .2923 | Mean (absorbance), SRB assay (MT-1 cells; Group 2: drug 1 ug/ml, light 25 J/cm^2): .1946 | Mean (absorbance), SRB assay (MT-1 cells; Group 3: drug 10 ug/ml, light 200 J/cm^2): .2558 | Mean (absorbance), SRB assay (MT-1 cells; Group 4: drug 10 ug/ml, light 25 J/cm^2): .2049 | Mean (absorbance), SRB assay (MT-1 cells; Group 7: drug 1 ug/ml, no light): 1.2392 | difference in absorbance versus untreated wells (MT-1 cells; drug only): No significant difference | difference in absorbance versus untreated wells (MT-1 cells; wells treated with light and drug): significant difference | BPD-MA fluorescence in bone marrow ([1]; 1 hour): contained signal | BPD-MA fluorescence in spinal cord ([1]; 1 hour): no drug being present | BPD-MA fluorescence in bone marrow ([1]; 3 hours): intense signal | BPD-MA fluorescence in spinal cord ([1]; 3 hours): intense signal | fluorescence of the drug within the spinal cord and vertebrae ([1]; 24 hours): returned to baseline levels | serum drug concentration ([1]; after 3 hours): began to decline | serum drug concentration ([1]; by 24 hours post injection): returned to baseline | uptake of BPD-MA in spinal cord ([1]; drug uptake studies (fluorimetry)): minimal uptake | delay of uptake into the spinal cord ([1]; fluorescence microscopy): greater than 1 hour | serum drug concentration ([1]; over 15 minutes post tail vein injection): rapid increase | Antero-Posterior dimension of effect [2, 8]: 2.62 mm | Rostral-Caudal dimension of effect [2, 8]: 4.59 mm | Area of effect ([2]; 25 J, drug-light interval 3 hrs, 2 mg/kg i.v.): 8.435 mm^2 | Antero-Posterior dimension of effect [2, 9]: 3.89 mm | Area of effect [2, 9]: 15.04 mm^2 | Rostral-Caudal dimension of effect [2, 9]: 5.66 mm | Antero-Posterior dimension of effect [2, 10]: 5.05 mm | Area of effect [2, 10]: 82.47 mm^2 | Rostral-Caudal dimension of effect [2, 10]: 17.47 mm | Antero-Posterior dimension of effect [2, 11]: 5.09 mm | Area of effect [2, 11]: 52.38 mm^2 | Rostral-Caudal dimension of effect [2, 11]: 11.67 mm | Antero-Posterior dimension of effect [2, 12]: 5.05 mm | Area of effect [2, 12]: 45.49 mm^2 | Rostral-Caudal dimension of effect [2, 12]: 13.8 mm | Antero-Posterior dimension of effect [2, 13]: 5.78 mm | Area of effect [2, 13]: 80.53 mm^2 | Rostral-Caudal dimension of effect [2, 13]: 13.05 mm | diameter of largest area of effect ([2]; 200 um fiber optical cable, treatment time 16 minutes): 2.2 cm | ablation of tumor tissue ([2]; 24 hour drug light interval): No effect; also recorded: no difference | effect on tumor, bone, bone marrow or spinal cord ([2]; drug only, no light): did not affect | decrease in tumor growth compared to control lesions ([3]; 25 J, 3 hour drug light interval): 66% | PostRx/PreRx, Rx Area [3, 8]: 1.25 | reduction of bioluminescent signal from the targeted site ([3]; 150 J, 3 hour drug light interval, 48 hours following treatment): 87% | decrease in tumor growth compared to control lesions ([3]; 150 J, 3 hour drug light interval, one treatment): 99.8% | PostRx/PreRx, Rx Area ([3]; 150 J, drug light interval 3 hrs): 0.139 | Mean Count Rx Area ([3]; Post-PDT (48 hours), 25 J, drug-light interval 3 hrs): 2.33 × 10^4 | Mean Count Rx Area ([3]; Post-PDT (48 hours), 150 J, drug light interval 3 hrs): 1.42 × 10^3 | Mean Count Rx Area ([3]; Pre-PDT, 25 J, drug-light interval 3 hrs (n = 2)): 1.86 × 10^4 | Mean Count Rx Area ([3]; Pre-PDT, 150 J, drug light interval 3 hrs (n = 5)): 1.02 × 10^4 | Hind Leg Paralysis (animals) ([4]; 25 J, T12, drug light interval 3 hr, N = 5): 0 | Hind Leg Paralysis (animals) ([4]; 50 J, T12, drug light interval 3 hr, N = 5): 2 unilateral | Hind Leg Paralysis (animals) ([4]; 75 J, T12, drug light interval 3 hr, N = 4): 1 bilateral | Hind Leg Paralysis (animals) ([4]; 100 J, T12, drug light interval 3 hr, N = 3): 2 unilateral | Hind Leg Paralysis (animals) ([4]; 125 J, T12, drug light interval 3 hr, N = 2): 1 bilateral | Hind Leg Paralysis (animals) ([4]; 150 J, T12, drug light interval 0.25 hr, N = 4): 4 | Hind Leg Paralysis (animals) ([4]; 150 J, T12, drug light interval 3 hr, N = 4): 3 bilateral | Death During PDT (animals) ([5]; MT-1 group, n = 20): 0 | Death Following Verteporfin Injection (animals) ([5]; MT-1 group, n = 20): 1 | Death During PDT (animals) ([5]; MT-1luc+ group, n = 30): 1 | Death Following Verteporfin Injection (animals) ([5]; MT-1luc+ group, n = 30): 2 | complications attributed to the PDT [6]: no hindleg paralysis | lesions completely ablated [7]: 33%
